According to ChEMBL document CHEMBL3832761, “MMV Pathogen Box Bioactivity Data” (2017):

Key:
[1] = system: Plasmodium berghei; assay: Antimalarial activity: Liver Stage Plasmodium berghei sporozoite Luciferase assay: inhibition at 10 uM (%); type: functional
[2] = system: Trypanosoma brucei; assay: AntiTrypanosoma brucei activity T. b. brucei IC50 (uM); type: functional, organism-based
[3] = system: MRC5; assay: MRC5 CC50 (uM) Cytotoxicity; type: functional; details: Homo sapiens
[4] = system: Trypanosoma brucei; assay: AntiTrypanosoma brucei activity T. b. rhodesiense IC50 (uM); type: functional, organism-based
[5] = system: Leishmania infantum; assay: AntiLeishmania activity L. infantum (macrophages) IC50 (uM); type: functional, organism-based
[6] = PMM CC50 (uM) Cytotoxicity; type: functional; details: Macrophage
[7] = system: Trypanosoma cruzi; assay: AntiTrypanosoma cruzi activity IC50 (uM); type: functional, organism-based
[8] = system: HepG2; assay: Cytotoxicity data HepG2 CC20 (uM); type: functional
[9] = system: Plasmodium berghei; assay: Antimalarial activity: Liver Stage Plasmodium berghei sporozoite Luciferase assay IC50 (uM); type: functional, organism-based
[10] = system: HepG2; assay: HepG2 CC50 (uM) Cytotoxicity; type: functional; details: Homo sapiens
[11] = system: Plasmodium falciparum; assay: Antimalarial activity: Gametocytes Plasmodium falciparum NF54 Gametocytes Stage V: inhibition at 10 uM (%); type: functional
[12] = system: Plasmodium falciparum; assay: Antimalarial activity: Asexual Blood Stage Plasmodium falciparum Dd2 IC50 (uM); type: functional, organism-based
[13] = system: Plasmodium falciparum; assay: Antimalarial activity: Asexual Blood Stage Plasmodium falciparum 3D7 IC50 (uM); type: functional, organism-based

IC50 [2] [µM]	IC50 [4] [µM]	IC50 [5] [µM]	IC50 [7] [µM]	IC50 [9] [µM]	IC50 [12] [µM]	IC50 [13] [µM]	Structure (SMILES)	Inhibition [1] [%]	CC50 [3] [µM]	CC50 [6] [µM]	CC20 [8] [µM]	CC50 [10] [µM]	Inhibition [11] [%]
1.03	0.23	1.01	0.29				N=C(N)Nc1ccc(-c2ccc(-c3ccc(NC(=N)N)cc3Cl)o2)c(Cl)c1		11.6	1	6.75		
7.58	3.77	> 32	16.4				c1ccc(Oc2ccc(-c3cc(C4CCOCC4)[nH]n3)cc2)cc1		22.8	> 32	10.8		
				1.77			C[C@H](C(N)=O)N1CCCC[C@@H]1c1ccc(OCc2cccc(F)c2)cc1	99			21.8	> 10	5
14.5	0.78	> 32	13.3				COc1cc(C2=NCCN2)cc2cc(-c3ccc(C4=NCCN4)cc3)oc12		> 32	> 32	14.3		
				0.36	> 2	> 2	C[C@]1(O)C[C@@H](c2nc(-c3ccc4ccc(-c5ccccc5)nc4c3)c3c(N)nccn32)C1 [LINSITINIB]	98			4.67	> 10	16
0.98	0.43	4.06	4.04				CC1=Nc2ccc(Cl)cc2C(O)(c2ccc(C)cc2)N1CCN1CCCCC1 (configuration not stated)		16	4	10		
				3.48		1.03	O=C(NC1CC1)c1ccc(N2CCOc3ccc(Cl)cc32)s1	98				> 10	18
				> 10	1.11	1.37	c1csc(-c2cnc3sc(NCC4CCOCC4)nn23)c1	58			30	> 10	18
5.63	3	> 32	> 32				c1cc(C2=NCCN2)cc(-c2cc(-c3ccc(C4=NCCN4)cc3)no2)c1		> 32	> 32	4.51		
				1.36	> 2	> 2	C[C@H](C(N)=O)N1CCCC[C@H]1c1ccc(OCc2cccc(F)c2)cc1	95			>80	> 10	0
				> 10	> 2	1.55	Nc1ccc(C(=O)Nc2ccc(-c3nc4ccccc4o3)cc2)cc1	89			18.2	> 10	0
				1.39	> 2	1.88	Cc1cc(C(=O)Nc2cnn(Cc3ccc(Cl)cc3Cl)c2)no1	98			30.6	> 10	11
> 32	3.81	> 32	> 32				COc1cc(C2=NCCN2)ccc1-n1cc(-c2cccc(C3=NCCN3)c2)nn1		> 32	> 32	>80		
< 0.13	< 0.13	> 32	0.99				CCc1ccccc1-n1c(C)cn2c3c(=O)n(C(C(=O)OC)C(C)C)c(=O)n(C)c3nc12 (configuration not stated)		> 32	> 32	44.3		
				0.93	1.47	> 2	COc1ccc(CN2CCOc3ccc(C(C)(O)CN(C)C)cc3C2)cc1C (configuration not stated)	64			17.4	> 10	7
0.26	0.24	13.6	0.82				CCCCN(CCCC)c1c(C#N)cc(S(=O)(=O)Nc2ccccc2)cc1C#N		3.9	16	11.9		

IC50 [2] [µM]	IC50 [4] [µM]	IC50 [5] [µM]	IC50 [7] [µM]	IC50 [9] [µM]	IC50 [12] [µM]	IC50 [13] [µM]	Structure (SMILES)	Inhibition [1] [%]	CC50 [3] [µM]	CC50 [6] [µM]	CC20 [8] [µM]	CC50 [10] [µM]	Inhibition [11] [%]
4.06	1.08	2.54	4.04				N=C(N)c1ccc(-c2cc(-c3ccccc3)on2)cc1		12.2	4	2.64		
> 32	1.63	> 32	> 32				COc1ccc(C2=NCCN2)cc1-c1cn(-c2cccc(C3=NCCN3)c2)nn1		> 32	> 32	>80		
< 0.13	< 0.13	0.16	< 0.13				O=C(Nc1ccc(F)c(-c2nc3cc(-c4ccccc4)cnc3[nH]2)c1)N1CCCC1		0.4	16			
0.49	0.38	> 64	> 64				CNC(=O)C1Cc2ccccc2N1C(=O)Cc1ccc(F)cc1 (configuration not stated)		> 64	> 64			
< 0.13	< 0.13	0.85	1.05				CNC(=O)c1nn(C)c2c1C(C)(C)Cc1cnc(Nc3ccc(N4CCN(C)CC4)cc3)nc1-2 [MILCICLIB]		1.1	1	<0.26		
4.64	1.94	36.3	9.44				CN1CCCN(C(c2ccccc2)c2ccc(Cl)cc2)CC1 (configuration not stated) [HOMOCHLORCYCLIZINE]		31.8	48			
0.99	0.97	4.06	4.48				c1ccc(Oc2ccc(-c3cc(N4CCNCC4)[nH]n3)cc2)cc1		16	4	6.43		
0.1	0.13	> 64	2.07				O=C(NCc1nnc2n1CCCCC2)c1ccc(-c2ccc(F)cc2)o1		> 64	> 64			
> 32	3.72	> 32	25				COc1cc(C2=NCCN2)ccc1-c1cn(-c2cccc(C3=NCCN3)c2)nn1		> 32	> 32	22.9		
2.46	1.31	> 64	> 64				CCC(=O)Nc1ccccc1C(=O)Nc1ccccn1		> 64	> 64			
1.22	0.46	> 64	> 64				CCOC(=O)c1noc(N)c1-c1ccccc1		> 64	> 64			
3.78	3.11	10.1	17.1				CC1=Nc2ccc(Cl)cc2C(c2ccccc2)N1CCNC(=O)CN(C)C (configuration not stated)		16	> 32	16.4		
0.15	0.23	1.41	0.27				O=C(Nc1ccc2c(c1)B(O)OC2)c1ccccc1C(F)(F)F		> 32	16	0.41		
0.5	0.4	52.2	2.7				COc1ccc(S(=O)(=O)Nc2ccc(CN3CCN(C(=O)c4cccc(C#N)c4)CC3)cc2)cc1		> 64	> 64			
0.6	0.2	10.2	0.66				N=C(N)Nc1ccc(-c2ccc(-c3ccc(N=C(N)N)c(Cl)c3)o2)cc1Cl		15.4	16	13.5		
5.3	1.7	6.87	1.96				CCN(CC)S(=O)(=O)c1ccc(C(=O)Nc2cc(C)nn2-c2nc(C)c(C)c(=O)[nH]2)cc1		6.6	> 64			

Structure (SMILES)	IC50 [2] [µM]	IC50 [4] [µM]	IC50 [5] [µM]	IC50 [7] [µM]	IC50 [9] [µM]	IC50 [12] [µM]	IC50 [13] [µM]	Inhibition [1] [%]	CC50 [3] [µM]	CC50 [6] [µM]	CC20 [8] [µM]	CC50 [10] [µM]	Inhibition [11] [%]
CC1COC(Cn2cncn2)(c2ccc(Oc3ccc(Cl)cc3)cc2Cl)O1 (configuration not stated) [DIFENOCONAZOLE]	32.5	26.2	44.7	0.01				85	30.9	> 64			
CO[C@@H](C(=O)N1Cc2[nH]nc(NC(=O)c3ccc(N4CCN(C)CC4)cc3)c2C1)c1ccccc1 [DANUSERTIB]	1.02	0.37	4.06	6.48					2.7	4	4.83		
Cc1nn(C)c(C)c1NS(=O)(=O)c1c(Cl)cc(-c2ccnc(N3CCNCC3)c2)cc1Cl	< 0.13	< 0.13	1.01	0.85					2	1	0.05		
CO[C@@H]1CN(c2ccc(C#CC3(O)CN4CCC3CC4)c(Cc3ccccc3)n2)C[C@H]1O (some centres not stated)	16.1	4	17.3	< 0.13					> 32	> 32	38.4		
CCc1nn(C)c(C(=O)NCc2ccc(Oc3ccc(C)cc3)cc2)c1Cl [TOLFENPYRAD]	33	20.4	45.6	5.35				94	56	48			
CC(C)(C)C(O)C(Oc1ccc(-c2ccccc2)cc1)n1cncn1 (configuration not stated) [BITERTANOL]	32.9	28	> 64	0.06				46	> 64	> 64			
CO/N=C(\C(=O)OC)c1ccccc1CO/N=C(\C)c1cccc(C(F)(F)F)c1	33.6	26.2	> 64	1.94			0.3	100	> 64	> 64			
